From patent US5447957A, “Anti-inflammatory compounds” (SmithKline Beecham Corp., priority 1994, dated 1995) come the findings set out here.

In the experiment the test system is TPA-induced Mouse Ear Inflammation. Briefly: Assay (g): TPA-induced Mouse Ear Inflammation (ear edema and MPO). Type of experiment: in vivo. Particulars: "this animal model"; topical. An excerpt: The ability of compounds that inhibit CoA-IT and/or PLA2 to affect in vivo inflammatory responses may be assessed. Inflammatory responses are induced in the mouse ear by the topical application of a pro-inflammatory agent, such as 12-0-tetradecanoylphorbol 13-acetate (assay g). This produces an edematous response, as measured by increases in ear thickness, as well as increased inflammatory cellular infiltrate, as measured by increases in myeloperoxidase activity (as described in the methods). To further validate the mechanism of action inflammation induced by the direct adminstration of arachidonic acid can be used. In this case compounds altering arachidonic acid mobilization or liberation should be with our effect.
Male Balb/c inbred mice were obtained from Charle River Breeding Laboratories (Kingston, N.Y.). Within a single experiment mice (22-25 g) were age-matched. These in vivo experiments typically involved use of 5-6 animals/group.
TPA (12-0-tetradecanoylphorbol 13-acetate) (Sigma Chemical Company) in acetone ([…]) was applied to the inner and outer surfaces of the left ear of BALB/c male mice. The thickness of both ears was then measured with a dial micrometer (Mitutoyo, Japan) at both 2 and 4 hours after treatment, and the data expressed as the change in thickness (10^-3 cm) between treated and untreated ears. […] After measuring the edema, the inflammed left ears were removed and stored at -70° C. until they were assayed for MPO (myeloperoxidase) activity where appropriate.
On the day of the assay, partially thawed ear tissues were minced and then homogenized (10% w/v) with a Tissumizer homogenizer (Tekmar Co.) in 50 mM phosphate buffer (pH 6) containing 0.5% HTAB. The tissue homogenates were taken through three cycles of freeze-thaw, followed by brief sonication (10 sec). The method of Bradley et al. was used with modifications as described. The appearance of a colored product from the MPO-dependent reaction of o-dianisidine (0.167 mg/ml; Sigma) and hydrogen peroxide (0.0005%; Sigma) was measured spectrophotometrically at 460 nm. Supernatant MPO activity was quantified kinetically (change in absorbance measured over 3 min, sampled at 15-sec intervals) using a Beckman DU-7 spectrophotometer and a Kinetics Analysis package (Beckman Instruments, Inc.). One unit of MPO activity is defined as that degrading one micromole of peroxide per minute at 25° C.
Statistical analysis was done using Student's "t" test. The ED50 are values which cause a 50% inhibition of the inflammatory response and are calculated by regression analysis of the dose response data.

`O=C(Nc1cc(C(F)(F)F)cc(C(F)(F)F)c1)Nc1ccccc1Oc1ccccc1C(=O)O` [Example 2, 2-[2-[3-[3,5-Bis (trifluoromethyl)phenyl]ureido]phenoxy]benzoic acid]: the “inhibition in mouse ear inflammation animal model” value was “positive inhibition”.

In the case of `O=C(Nc1cc(C(F)(F)F)cc(C(F)(F)F)c1)Nc1cc(C(F)(F)F)ccc1Oc1ccccc1C(=O)O` [Example 7, 2-[2-[3-[3,5-Bis(trifluoromethyl)phenyl]ureido]-4-trifluoromethylphenoxy]benzoic acid], the “inhibition in mouse ear inflammation animal model” value is “positive inhibition”.
